Assay [1] deals with non-small cell lung cancer cell line H460. The assay can be described thus: In vitro human cancer cell line cytotoxicity (proliferation) assay in H460, CellTiter-Glo, 72 hours. The format is cell-based. Particulars: H460 cells, DMSO condition (no AKR1C3 inhibitor), read-out: CTG H460: Avg IC50 (nM) [Assay Condition: DMSO]. Put shortly: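 IC50s in nM come from CellTiter-Glo viability read after 72 h of compound exposure. Compounds went in from 10 mM DMSO stocks onto H460 cells, which had been plated at 3×10^3 per well and grown 24 h beforehand at 37 °C, 5% CO2.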
Background: ATP-based viability assays read luminescence as a measure of living cells.

For assay [2] the test system is unchanged. The experiment in a line: H460 proliferation assay in the presence of 3 uM ASP9521 (AKR1C3 specific inhibitor). The note with it: H460 cells, CellTiter-Glo, 72 hours, in the presence of 3 uM ASP9521 added 4 hours prior to compounds; read-out: CTG H460: Avg IC50 (nM) [Assay Condition: ASP9521]. The class given is cell-based, human. Put shortly:
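AKR1C3 blocked with 3 uM ASP9521 given 4 h ahead of test compounds. H460 cells, plated 24 h earlier, were then treated for 72 h at 37 °C in 5% CO2. CellTiter-Glo luminescence gave viability.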

The term IC50 denotes the concentration that gives 50% inhibition. In the case of `O=C(c1cccc(Oc2c([N+](=O)[O-])ccc3c2CCC3OP(=O)(N2CC2)N2CC2)c1)N1CC(F)(F)C1` (centres unmarked) [Example 66], the IC50 in assay [1] (Homo sapiens, NCI-H460, 72 h) was less than 10 nM; in assay [2] it was 736 nM.
On to `Cn1c(=O)oc2ccc(Oc3c([N+](=O)[O-])ccc4c3CCC4OP(=O)(N3CC3)N3CC3)cc21` (single isomer, unassigned) [Example 65], for which the IC50 in assay [1] was less than 10 nM; in assay [2] it was 279 nM.
For the compound `O=[N+]([O-])c1ccc2c(c1Oc1ccc(-c3ccccn3)cc1)CC[C@H]2OP(=O)(N1CC1)N1CC1` (single isomer, unassigned) [Example 41], the IC50 in assay [1] (Homo sapiens, NCI-H460, 72 h) was less than 10 nM; in assay [2] it was 1090 nM.
Take `O=[N+]([O-])c1cc2c(cc1Oc1ccc(-c3ccc(Cl)cc3)cc1)C(OP(=O)(N1CC1)N1CC1)CC2` (centres unmarked) [Example 183]: the concentration for half-maximal inhibition (IC50) in assay [1] was 10 to 50 nM; in assay [2], 1840 nM.
In the case of `C[C@H]1CN1P(=O)(OCc1ccc([N+](=O)[O-])c(Oc2cccc(C(=O)N(C)C)c2)c1)N1C[C@@H]1C` (some centres unmarked) [Example 207], the IC50 was less than 10 nM in assay [1] (Homo sapiens, NCI-H460, 72 h) and 217 nM in assay [2].
On to `CC(C)(C)c1cncc(Oc2c([N+](=O)[O-])ccc3c2CCC3OP(=O)(N2CC2)N2CC2)c1` (centres unmarked) [Example 325], for which the figures for the IC50 in assay [1] and in assay [2] were less than 10 nM and 608 nM, respectively.
Take `CC(OP(=O)(N1C[C@H]1C)N1C[C@H]1C)c1ccc([N+](=O)[O-])c(Oc2ccc(-c3ccccc3)cc2)c1` (some centres unmarked) [Example 220]: the values for the IC50 in assay [1] and in assay [2] were less than 10 nM and 5050 nM, respectively.
Consider `CN1CC(=O)N(c2cccc(Oc3c([N+](=O)[O-])ccc4c3CCC4OP(=O)(N3CC3)N3CC3)c2)CC1=O` (centres unmarked) [Example 122], for which the IC50 in assay [1] (Homo sapiens, NCI-H460, 72 h) is 10 to 50 nM; in assay [2], 3090 nM.
`CC(OP(=O)(N1C[C@H]1C)N1C[C@H]1C)c1ccc([N+](=O)[O-])c(Oc2ccc(-c3ccc(F)cn3)c(F)c2)c1` (some centres unmarked) [Example 224]: the figures for the IC50 in assay [1] and in assay [2] were less than 10 nM and 6460 nM, respectively.
On to `O=[N+]([O-])c1ccc2c(c1Oc1ccc(-c3ccccc3)nc1)CCC2OP(=O)(N1CC1)N1CC1` (centres unmarked) [Example 51], for which the IC50 in assay [1] was less than 10 nM; in assay [2], 327 nM.
The like results for `O=[N+]([O-])c1ccc2c(c1Oc1ccc(-c3ccc(F)cc3)cc1)CCC2OP(=O)(N1CC1)N1CC1` (centres unmarked) [Example 22] were, in that order, 10 to 50 nM and 1640 nM.
Take `O=[N+]([O-])c1ccc2c(c1Oc1cccc(C(F)(F)F)c1)CCC2OP(=O)(N1CC1)N1CC1` (centres unmarked) [Example 123]: the IC50 is less than 10 nM in assay [1] (Homo sapiens, NCI-H460, 72 h) and 572 nM in assay [2].
In the same order, the values of `Cn1cc(-c2ccc(Oc3cc4c(cc3[N+](=O)[O-])CCC4OP(=O)(N3CC3)N3CC3)cc2)ccc1=O` (centres unmarked) [Example 178] are not below 100 nM and 1630 nM.
`O=[N+]([O-])c1cc2c(cc1Oc1ccc(-c3ccc(F)cn3)c(F)c1)C(OP(=O)(N1CC1)N1CC1)CC2` (centres unmarked) [Example 143]: the IC50 in assay [1] is less than 10 nM; in assay [2], 1720 nM.
For `O=C1c2cc(Oc3cc4c(cc3[N+](=O)[O-])CCC4OP(=O)(N3CC3)N3CC3)ccc2CN1C1CC1` (single isomer, unassigned) [Example 170], the IC50 in assay [1] (Homo sapiens, NCI-H460, 72 h) is less than 10 nM; in assay [2] it was 801 nM.
The like results for `Cc1ccnc(-c2ccc(Oc3c([N+](=O)[O-])ccc4c3CC[C@@H]4OP(=O)(N3CC3)N3CC3)cc2F)n1` [Example 267, (S)-4-(3-fluoro-4-(4-methylpyrimidin-2-yl)phenoxy)-5-nitro-2,3-dihydro-1H-inden-1-yl di(aziridin-1-yl)phosphinate] were, in that order, less than 10 nM and 639 nM.
Consider `O=[N+]([O-])c1ccc2c(c1Oc1ccc3c(c1)OC(F)(F)O3)CC[C@@H]2OP(=O)(N1CC1)N1CC1` [Example 385], for which the IC50 in assay [1] (Homo sapiens, NCI-H460, 72 h) is less than 10 nM; in assay [2], 819 nM.
In the same order, the values of `O=[N+]([O-])c1cc2c(cc1Oc1ccc(-c3ccc(F)cn3)c(F)c1)C(OP(=O)(N1CC1)N1CC1)CC2` (centres unmarked) [Example 142] are less than 10 nM and 4130 nM.
The like results for `O=[N+]([O-])c1ccc2c(c1Oc1cccc(-c3ccccc3)c1)CCC2OP(=O)(N1CC1)N1CC1` (single isomer, unassigned) [Example 30] were, in that order, less than 10 nM and 1510 nM.
`Cn1cccc(-c2ccc(Oc3c([N+](=O)[O-])ccc4c3CC[C@H]4OP(=O)(N3CC3)N3CC3)cc2)c1=O` [Example 271]: the values for the IC50 in assay [1] and in assay [2] were less than 10 nM and 920 nM, respectively.
Regarding `COc1ccnc(OCc2cc(C(C)OP(=O)(N3CC3)N3CC3)ccc2[N+](=O)[O-])c1` (single isomer, unassigned) [Example 3], the IC50 in assay [1] (Homo sapiens, NCI-H460, 72 h) was not below 100 nM; in assay [2] it was more than 3410 nM.
As for `O=[N+]([O-])c1ccc2c(c1Oc1ccc(F)c(-c3ccc(F)cn3)c1)CCC2OP(=O)(N1CC1)N1CC1` (centres unmarked) [Example 328], the IC50 in assay [1] is less than 10 nM; in assay [2] it was 4230 nM.
Consider `C[C@@H](OP(=O)(N1CC1)N1CC1)c1cc2cc(Oc3cccc(C(=O)N4CCC4)c3)c([N+](=O)[O-])cc2o1` [Example 559], for which the IC50 in assay [1] is 10 to 50 nM; in assay [2], 7000 nM.
As for `O=[N+]([O-])c1ccc2c(c1Oc1cncc(C3CC3)c1)CCC2OP(=O)(N1CC1)N1CC1` (racemic) [Example 315], the IC50 in assay [1] is less than 10 nM; in assay [2] it was 679 nM.
As for `O=[N+]([O-])c1ccc2c(c1Oc1ccc(-c3ccccc3)nc1)CCC2OP(=O)(N1CC1)N1CC1` (centres unmarked) [Example 50], the 50% inhibitory concentration (IC50) was less than 10 nM in assay [1] (Homo sapiens, NCI-H460, 72 h) and 335 nM in assay [2].
On to `Cc1cccc(-c2ccc(Oc3c([N+](=O)[O-])ccc4c3CCC4OP(=O)(N3CC3)N3CC3)cc2)n1` (racemic) [Example 277], for which the IC50 is less than 10 nM in assay [1] and 1530 nM in assay [2].
With `Cc1coc(-c2cccc(Oc3c([N+](=O)[O-])ccc4c3CC[C@@H]4OP(=O)(N3CC3)N3CC3)c2)n1` [Example 361], the IC50 in assay [1] (Homo sapiens, NCI-H460, 72 h) is 10 to 50 nM; in assay [2], 3910 nM.
With `O=[N+]([O-])c1ccc2c(c1Oc1cccc(-c3ccc(F)cn3)c1)CCC2OP(=O)(N1CC1)N1CC1` (centres unmarked) [Example 322], the IC50 was less than 10 nM in assay [1] and 1610 nM in assay [2].
Turning to `O=c1ccc(Oc2c([N+](=O)[O-])ccc3c2CCC3OP(=O)(N2CC2)N2CC2)cn1C1CC1` (centres unmarked) [Example 511], the 50% inhibitory concentration (IC50) was less than 10 nM in assay [1] and 429 nM in assay [2].
For the compound `CC(OP(=O)(N1CC1)N1CC1)c1cc2cc(Oc3cccc(C(=O)N(C)C)c3)c([N+](=O)[O-])cc2o1` (single isomer, unassigned) [Example 232], the IC50 is 10 to 50 nM in assay [1] (Homo sapiens, NCI-H460, 72 h) and 4110 nM in assay [2].
`C[C@H](OP(=O)(N1CC1)N1CC1)c1cc2cc(Oc3cccc(C(=O)N4CC(F)(F)C4)c3)c([N+](=O)[O-])cc2o1` [Example 552]: the IC50 in assay [1] was 10 to 50 nM; in assay [2], 5870 nM.
The like results for `CC(OP(=O)(N1C[C@@H]1C)N1C[C@@H]1C)c1ccc([N+](=O)[O-])c(Oc2ccc(-c3ccccc3)cc2)c1` (some centres unmarked) [Example 219] were, in that order, less than 10 nM and 2750 nM.
The like results for `Cc1nc(-c2cccc(Oc3c([N+](=O)[O-])ccc4c3CCC4OP(=O)(N3CC3)N3CC3)c2)no1` (centres unmarked) [Example 89] were, in that order, 10 to 50 nM and 6150 nM.
The like results for `O=[N+]([O-])c1ccc2c(c1Oc1ccc(-c3ccc(F)cc3)cc1)OCCC2OP(=O)(N1CC1)N1CC1` (centres unmarked) [Example 133] were, in that order, 10 to 50 nM and 1620 nM.
For the compound `O=[N+]([O-])c1ccc2c(c1Oc1cccc(-n3cc(F)cn3)c1)CCC2OP(=O)(N1CC1)N1CC1` (centres unmarked) [Example 83], the IC50 was less than 10 nM in assay [1] and 1170 nM in assay [2].
In the same order, the values of `CN(C)C(=O)c1cc(Oc2c([N+](=O)[O-])ccc3c2CC[C@@H]3OP(=O)(N2CC2)N2CC2)ccc1F` [Example 255] are less than 10 nM and 832 nM.
Regarding `O=[N+]([O-])c1ccc2c(c1Oc1ccc(F)c(-c3nncs3)c1)CC[C@@H]2OP(=O)(N1CC1)N1CC1` [Example 363], the IC50 in assay [1] (Homo sapiens, NCI-H460, 72 h) is less than 10 nM; in assay [2], 584 nM.

These data come from patent publication US20260167656A1, “PHOSPHORAMIDATE COMPOUNDS AND USES THEREOF” (ALLORION THERAPEUTICS INC, priority 2022, published 2026).
